Results published in patent US11925650B2, “Antibacterial chemical compound, its manufacturing method and its use thereof” (National Taiwan University, priority 2022, dated 2024).
Read-outs that look alike come from different tables or passages of the source.

Key:
[1] = test system: intracellular Salmonella in RAW264.7 cells; assay: Intracellular Salmonella viability with autophagy inhibitor 3-MA (HCA); format: cell-based, S. typhimurium
Procedure: FIG. 7. Infected RAW264.7 cells treated with 10 mM of 3-MA for 1 h followed by 0.5 μM of SW14 or mock (DMSO) treatment for 24 hours.
Autophagy was originally characterized as a cellular response to stress, but has been considered to be a defense mechanism to combat host cell infection by intracellular Salmonella. Therefore, to evaluated the role of autophagy in SW14's anti-intracellular Salmonella activity, infected cells are treated with 3-MA, an autophagy inhibitor to block cellular autophagy then followed by treatment with SW14 for 24 h. […] Compared to mock-treated cells, the viability of intracellular Salmonella in cells treated with SW14 or the combination of 3-MA and SW14 were 45% and 36.8%, respectively.

[2] = test system: Salmonella Typhimurium NL08.10; assay: MIC of antibiotics, multidrug-resistant isolate NL08.10; format: cell-based; details: Table 5; for MIC: Salmonella enterica, TYPHIMURIUM
[3] = test system: Salmonella Typhimurium ATCC 14028; assay: MIC of antibiotics, strain ATCC 14028; format: cell-based; details: for MIC: Salmonella enterica
[4] = test system: Salmonella Typhimurium 0911R; assay: MIC of antibiotics, multidrug-resistant isolate 0911R; format: cell-based; details: Table 5; for MIC: Salmonella enterica, TYPHIMURIUM
[5] = test system: intracellular Salmonella in RAW264.7 cells; assay: Intracellular Salmonella with cefixime or ciprofloxacin alone or combined with SW14 (HCA); format: cell-based; details: 24 hours
Procedure: FIG. 4. Salmonella-infected RAW264.7 cells treated with (A) 0.25, 0.5, 1, 2, and 4 mg/L of cefixime (CFM) and (B) 0.03, 0.06, 0.125, 0.25, and 0.5 mg/L of ciprofloxacin (CIP) alone or in combination with 0.5 μM SW14. After 24 hours, the relative numbers of intracellular bacteria were determined using HCA and the results are expressed as relative fluorescence units (RFU).

[6] = test system: Salmonella Typhimurium SA10; assay: MIC of antibiotics, ciprofloxacin-resistant strain SA10; format: cell-based; details: Table 6; for MIC: Salmonella enterica, TYPHIMURIUM
[7] = test system: Salmonella Typhimurium SB10; assay: MIC of antibiotics, ciprofloxacin-resistant strain SB10; format: cell-based; details: Table 6; for MIC: Salmonella enterica, TYPHIMURIUM
[8] = test system: ROS levels in infected macrophages; assay: ROS production in Salmonella-infected RAW264.7 cells (H2DCFDA); format: cell-based; details: 1 hour; SW14 at concentrations up to 8 μM
Procedure: FIG. 10. […] The viabilities of intracellular Salmonella in RAW264.7 cells treated with SW14 with/without the ROS scavengers N-acetyl-cysteine (NAC; 10 mM) or glutathione (GSH; 10 mM) are assessed using HCA. […] Salmonella-infected RAW264.7 cells are loaded with 25 μM H2DCFDA for 45 min followed by treatment with SW14 or PMA at various concentrations. […] S. Typhimurium ATCC 14028 is treated with H2O2 alone or in combination with SW14 (0.5 μM) in (C) LB or (D) LPM for 1 hour followed by evaluation by the CFU assay to determine bacterial viability.

[9] = test system: S. Typhimurium 14028; assay: Anti-intracellular Salmonella activity in infected RAW264.7 cells (HCA); format: cell-based, Salmonella Typhimurium
[10] = test system: S. Typhimurium ATCC 14028; assay: Bacterial susceptibility to H2O2 (CFU assay); format: cell-based, Salmonella Typhimurium; details: 1 hour
Procedure: (§1) FIG. 10. SW14 sensitizing outer membrane-compromised S. typhimurium to oxidative stress. (A) ROS scavengers reversed the suppressive effects of SW14 on intracellular S. typhimurium. The viabilities of intracellular Salmonella in RAW264.7 cells treated with SW14 with/without the ROS scavengers N-acetyl-cysteine (NAC; 10 mM) or glutathione (GSH; 10 mM) are assessed using HCA. […] Salmonella-infected RAW264.7 cells are loaded with 25 μM H2DCFDA for 45 min followed by treatment with SW14 or PMA at various concentrations. […] S. Typhimurium ATCC 14028 is treated with H2O2 alone or in combination with SW14 (0.5 μM) in (C) LB or (D) LPM for 1 hour followed by evaluation by the CFU assay to determine bacterial viability.
Next, the effects of SW14 on bacterial resistance to ROS are investigated.

[11] = test system: multidrug-resistant S. typhimurium NL08.10 and 0911R; details: SW14 0.3-10 μM with gentamicin, 24 h
Procedure: (§2) FIG. 5. RAW264.7 cells infected with (A) multidrug-resistant strains of S. Typhimurium ATCC 14028, NL08., and 100911R or (B) ciprofloxacin-resistant strains of S. typhimurium ATCC 14028, SA10, and SB10 followed by treatment with 0, 0.3, 1, 3, and 10 μM of SW14 combined with […] gentamicin for 24 h. The relative numbers of intracellular bacteria were determined using HCA and the results are expressed as relative fluorescence units (RFU).

[12] = test system: ciprofloxacin-resistant strain SA10 and SB10; details: SA10 and SB10, SW14 0.3-10 μM with gentamicin, 24 h
Procedure: as §2
Then extended the investigation to S. typhimurium isolates with resistance to ciprofloxacin.

[13] = test system: intracellular Salmonella in RAW264.7 cells; assay: Intracellular bacteria survival, colony-forming unit assay; details: sub-micromolar concentrations, gentamicin 20 mg/L, 24 h
Procedure: The intracellular bacteria survival was assessed using HCA and a CFU assay, and the data are expressed as a percentage relative to the untreated control and are presented as the mean±SD (n=3 per group).

[14] = test system: intracellular Salmonella in Atg7 knockdown RAW264.7 cells; assay: Intracellular bacterial survival in RAW264.7 cells with Atg7 knockdown (HCA); format: cell-based, S. typhimurium; details: shRNA Atg7 knockdown RAW264.7 cells, SW14 0.3 and 1 μM, 24 hours
Description: FIG. 8. RAW264.7 cells transfected with a plasmid to express shRNA targeting Atg7 (shATG7). The levels of the Atg7 protein in the stable transfectants as determined by immunoblotting. Bands for Atg7 were quantified by densitometry and normalized to those of β-actin. Percentages represent the relative expression levels of Atg7 in the shATG7 transfectants compared to the vector transfectants.
FIG. 9. Intracellular bacterial survival in SW14-treated RAW264.7 cells with shRNA-mediated knockdown of Atg7 expression. RAW264.7 cells were transfected with the empty vector (Vec) and infected with S. typhimurium followed by treatment with 0, 0.3, and 1 μM of SW14 and […] gentamicin for 24 hours. The numbers of surviving intracellular bacteria are determined by HCA and the results are expressed as a percentage of the control group. Data shown are the means; error bars represent the SD (n=3). ns: non-significant, P>0.05; *P<0.05 for the differences between the drug-treated groups and their respective control groups.

[15] = test system: S. typhimurium; assay: Bacterial growth in medium (OD600); format: cell-based; details: LB medium and macrophage culture medium, concentrations up to 64 μM, 24 hours
Procedure: FIG. 6. The growth of S. typhimurium in LB medium, cell culture medium (CCM), or LPM medium containing 0, 0.5, and 64 μM of SW14 monitored by measuring the OD600 of each bacterial culture at designated times for a total of 24 h.

[16] = test system: S. Typhimurium within macrophages; assay: Intracellular Salmonella viability with ROS scavengers (HCA); format: cell-based, Salmonella Typhimurium; details: NAC 10 mM or GSH 10 mM
Procedure: as §1
Oxidative stress is another innate defense system in host cells that controls intracellular Salmonella infection. In FIG. 10(A), the suppressive effects of SW14 against S. Typhimurium within macrophages are reversed in the presence of two ROS scavengers, N-acetyl cysteine (NAC) and glutathione (GSH).

[17] = test system: RAW264.7; assay: Cytotoxicity in RAW264.7 cells (HCA, MTT cell viability assay); format: cell-based; details: Mus musculus, RAW264.7, read-out: IC50 (μM) RAW264.7
Procedure: The cell viability was evaluated using HCA and an MTT cell viability assay, and the data are expressed as a percentage relative to the untreated control and are presented as the mean±SD (n=3 per group).

[18] = CAMH medium, read-out: MIC S. Typhimurium ATCC 14028, CAMH
[19] = LB medium, read-out: MIC S. Typhimurium ATCC 14028, LB
[20] = Table 5, read-out: MIC ATCC 14028
[21] = acidic LPM medium, read-out: MIC S. Typhimurium ATCC 14028, LPM
[22] = Table 6, read-out: MIC ATCC 14028

Cn1cnc(=N)c2[nH]cnc21 [3-MA, reference compound]
relative number of intracellular bacteria in 3-MA-treated cells ([1]; 10 mM 3-MA): increased significantly

CC1(C)S[C@@H]2[C@H](NC(=O)[C@H](N)c3ccccc3)C(=O)N2[C@H]1C(=O)O [Ampicillin]
MIC [2]: > 64 µg/mL
MIC [3, 18]: 4 µg/mL
MIC [3, 19]: 4 µg/mL
MIC [3, 20]: 16 µg/mL
MIC [3, 21]: 1 µg/mL
MIC [4]: > 64 µg/mL

O=C(N[C@H](CO)[C@H](O)c1ccc([N+](=O)[O-])cc1)C(Cl)Cl [Chloramphenicol]
MIC [2]: 32 µg/mL
MIC [3, 20]: 16 µg/mL
MIC [4]: 32 µg/mL

O=C(O)c1cn(C2CC2)c2cc(N3CCNCC3)c(F)cc2c1=O [Ciprofloxacin, ciprofloxacin]
survival of intracellular Salmonella in macrophages, antibiotic treatment ([5]; alone or combined with 0.5 μM SW14): inhibited the survival of intracellular Salmonella in macrophages in a dose-dependent manner
MIC [6]: 4 µg/mL
MIC [7]: 4 µg/mL
MIC [3, 22]: < 0.125 µg/mL

CC1COc2c(N3CCN(C)CC3)c(F)cc3c(=O)c(C(=O)O)cn1c23 (stereo not shown) [Ofloxacin]
MIC [6]: 8 µg/mL
MIC [7]: 8 µg/mL
MIC [3, 22]: < 0.125 µg/mL

CCCCCCCCCCCCCC(=O)O[C@@H]1[C@@H](C)[C@@]2(O)[C@@H](C=C(CO)C[C@]3(O)C(=O)C(C)=C[C@@H]23)[C@@H]2C(C)(C)[C@]12OC(C)=O [PMA, reference compound]
ROS levels (H2DCFDA signal) in infected macrophages [8]: significantly elevated ROS levels

CO[C@H]1/C=C/O[C@@]2(C)Oc3c(C)c(O)c4c(O)c(c(/C=N/N5CCN(C)CC5)c(O)c4c3C2=O)NC(=O)/C(C)=C\C=C\[C@H](C)[C@H](O)[C@@H](C)[C@@H](O)[C@@H](C)[C@H](OC(C)=O)[C@@H]1C [Rifampin]
MIC [3, 18]: 16 µg/mL
MIC [3, 19]: 16 µg/mL
MIC [3, 21]: 4 µg/mL

Clc1ccc2c(c1)C(NCCN1CCNCC1)=Nc1ccccc1O2 [SW14, 2-chloro-N-(2-(piperazin-1-yl)ethyl)dibenzo[b,f][1,4]oxazepin-11-amine]
enhancement of antibiotic suppression of intracellular Salmonella ([5]; 0.5 μM SW14 combined with CFM or CIP): can enhance the suppression caused by these antibiotics
Selectivity ratio (IC50/EC50) ([9]; IC50 RAW264.7 / EC50 S. Typhimurium 14028): 80.6
EC50 ([9]; Salmonella enterica, TYPHIMURIUM, RAW264.7, read-out: EC50 (μM) S. Typhimurium 14028, intracellular Salmonella in infected RAW264.7 cells): 0.5 µM
EC50 ([9]; read-out: EC50 (μM) S. Typhimurium 14028, intracellular Salmonella in infected RAW264.7 cells): 0.4 µM
susceptibility of S. typhimurium to H2O2 after SW14 treatment, LB broth ([10]; 0.5 μM SW14, LB broth): not in LB broth
susceptibility of S. typhimurium to H2O2 after SW14 treatment, LPM medium ([10]; 0.5 μM SW14, LPM medium): significantly increasing
viability of intracellular Salmonella compared to mock-treated cells, combination of 3-MA and SW14 ([1]; 10 mM 3-MA 1 h, then 0.5 μM SW14 24 hours): 36.8%
viability at 0.5 µM ([1]; Salmonella, RAW264.7, 24 h, read-out: viability of intracellular Salmonella compared to mock-treated cells): 45%
intracellular replication of multidrug-resistant S. typhimurium isolates [11]: remained susceptible
intracellular proliferation of ciprofloxacin-resistant isolates [12]: still highly sensitive
effect on viability of intracellular Salmonella (CFU assay) [13]: potent suppressive effect
susceptibility of intracellular Salmonella to SW14 after knockdown of Atg7 [14]: more susceptible
ROS levels (H2DCFDA signal) in infected macrophages [8]: did not observe any significant change
inhibitory effect on growth of bacteria in medium [15]: did not show significant inhibitory effects
suppressive effects against S. Typhimurium within macrophages in presence of ROS scavengers [16]: reversed
IC50 [17]: 28.7 µM

[H]/N=C(/N)N[C@H]1[C@H](O)[C@@H](O)[C@H](O[C@@H]2O[C@@H](C)[C@](O)(C=O)[C@H]2O[C@@H]2O[C@@H](CO)[C@H](O)[C@@H](O)[C@@H]2NC)[C@@H](N/C(N)=N\[H])[C@@H]1O [Streptomycin]
MIC [2]: > 64 µg/mL
MIC [3, 20]: 32 µg/mL
MIC [4]: > 64 µg/mL

CN(C)[C@@H]1C(O)=C(C(N)=O)C(=O)[C@@]2(O)C(O)=C3C(=O)c4c(O)cccc4[C@@](C)(O)[C@H]3C[C@@H]12 [Tetracycline]
MIC [2]: > 64 µg/mL
MIC [3, 20]: 8 µg/mL
MIC [4]: > 64 µg/mL

CN[C@H](CC(C)C)C(=O)N[C@H]1C(=O)N[C@@H](CC(N)=O)C(=O)N[C@H]2C(=O)N[C@H]3C(=O)N[C@H](C(=O)N[C@H](C(=O)O)c4cc(O)cc(O)c4-c4cc3ccc4O)[C@H](O)c3ccc(c(Cl)c3)Oc3cc2cc(c3O[C@@H]2O[C@H](CO)[C@@H](O)[C@H](O)[C@H]2O[C@H]2C[C@](C)(N)[C@H](O)[C@H](C)O2)Oc2ccc(cc2Cl)[C@H]1O [Vancomycin]
MIC [3, 18]: 2050 µg/mL
MIC [3, 19]: 512 µg/mL
MIC [3, 21]: 128 µg/mL

Gentamycin
MIC NL08.10 [2]: 2 µg/mL
MIC SA10 [6]: 0.5 µg/mL
MIC SB10 [7]: 1 µg/mL
MIC ATCC 14028 ([3]; Table 5): 2 µg/mL
MIC ATCC 14028 ([3]; Table 6): 2 µg/mL
MIC 0911R [4]: 2 µg/mL
